Data reported in BindingDB's records for doi:10.1016/j.bmc.2012.08.006 (Chungnam National University, 2012).
pIC50: −log10 of the molar value.

Test: Inhibition of IL-5 in mouse Y16 cells after 48 hrs by WST1 assay
In the case of `CCCN(CCO)Cc1coc2cccc(OCC3CCCCC3)c2c1=O`, the pIC50 was 4.81. Work on `CCN(CCO)Cc1coc2cccc(OCC3CCCCC3)c2c1=O` yielded a pIC50 of 4.71. For `COc1ccc(CN(CCO)Cc2coc3cccc(OCC4CCCCC4)c3c2=O)cc1`, the pIC50 was 5.05. Molecule `O=c1c(CN(CCO)Cc2ccc(O)cc2)coc2cccc(OCC3CCCCC3)c12` has a pIC50 of 5.04. For `Cc1ccc(CN(CCO)Cc2coc3cccc(OCC4CCCCC4)c3c2=O)cc1`, the pIC50 was 5.03. `O=c1c(CN(CCO)Cc2ccccc2)coc2cccc(OCC3CCCCC3)c12` gave a pIC50 of 4.79. Molecule `O=c1c(CN(CCO)CC2CCCCC2)coc2cccc(OCC3CCCCC3)c12` has a pIC50 of 4.91. `O=c1c(CN(CCO)Cc2ccncc2)coc2cccc(OCC3CCCCC3)c12` gave a pIC50 of 4.85. For `O=c1c(CN(CCO)Cc2ccc(Cl)cc2)coc2cccc(OCC3CCCCC3)c12`, the pIC50 was 4.99. Work on `CC(C)N(CCO)Cc1coc2cccc(OCC3CCCCC3)c2c1=O` yielded a pIC50 of 4.99. For `CCCCN(CCO)Cc1coc2cccc(OCC3CCCCC3)c2c1=O`, the pIC50 was 5.04. In the case of `O=c1c(CN(CCO)c2ccccc2)coc2cccc(OCC3CCCCC3)c12`, the pIC50 was 4.84. Molecule `O=c1c(CN(CCO)C2CCCCC2)coc2cccc(OCC3CCCCC3)c12` has a pIC50 of 5.05. `CN(CCO)Cc1coc2cccc(OCC3CCCCC3)c2c1=O` showed a pIC50 of 4.52.
